According to patent US20090136434A1, “Tyrosinase enzyme inhibitors from fungal hydroxylation of tibolone” (HEJ Research Institute, priority 2007, published 2009):

Experiments:
Salmonella typhimurium = conditions: studies referred to, no data of the applicant; cited from earlier work
mushroom tyrosinase = assay: Tyrosinase inhibition assay (o-diphenolase activity, L-DOPA as substrate); format: biochemical; conditions: mushroom tyrosinase 30 units (28 nM), L-DOPA 0.5 mM, pH 6.8, absorbance at 475 nm, mean ± S.E.M., at least triplicates; read-out: IC50 ± SEM (in μM), tyrosinase inhibitory activity
Method: Tyrosinase inhibition assays were performed in 96-well microplate format using SpectraMax 340 microplate reader (Molecular Devices, CA, USA) according to the method developed by Hearing (1987). Briefly, first the compounds were screened for the o-diphenolase inhibitory activity of tyrosinase using L-DOPA as substrate. […] Compounds were dissolved in methanol to a concentration of 2.5%. 30 units of mushroom tyrosinase (28 nM from Sigma Chemical Co., USA) first preincubated with the compounds in […] Na-phosphate buffer (pH 6.8) for 10 min at 25° C. Then, the L-DOPA (0.5 mM) was added to the reaction mixture and the enzyme reaction was monitored by measuring the change in absorbance at 475 nm (at 37° C.) due to the formation of the DOPA chrome for 10 min. The percent inhibition of the enzyme was calculated as =[…], wherein the B and S are absorbance for the blank and samples, respectively. After screening, the compounds median inhibitory concentration (IC50) was also calculated. […] (Hearing et al., Int J Biochem, 19(12): 1141-71987).

Structure (SMILES)	mutagenic activity in a Salmonella typhimurium assay (Salmonella typhimurium)	IC50 (mushroom tyrosinase) [µM]	melting point [°C]
O=c1cc(CO)occ1O [Kojic acid]	weak mutagenic activity	–	–
N[C@@H](Cn1ccc(=O)c(O)c1)C(=O)O [L-Mimosine, L-mimosine, reference compound]	–	3.68 ± 0.022	–
C#CC1(O)CCC2C3C(CCC21C)C1=C(CC(=O)CC1)C(O)C3C (stereo not drawn) [Metabolite 1, 6β-Hydroxytibolone]	–	7.45 ± 0.21	202 to 205
C#CC1(O)CC(O)C2C3C(C)CC4=C(CCC(=O)C4)C3CCC21C (stereo not drawn) [Metabolite 2, 15β-Hydroxytibolone]	–	50.86 ± 0.36	–
C#CC1(O)CCC2C3C(C)CC4=CC(=O)CCC4C3CCC21C (stereo not shown) [Metabolite 3, Δ^4-Tibolone]	–	8.19 ± 0.54	–
C#CC1(O)CCC2C3C(C)CC4=CC(=O)CCC4(O)C3CCC21C (stereo not drawn) [Metabolite 4, 10β-Hydroxy-Δ^4-Tibolone]	–	119.4 ± 0.2	–
C#CC1(O)CC(O)C2C3C(C)CC4=C(CCC(=O)C4)C3C(O)CC21C (stereo not drawn) [Metabolite 5, 11α,15β-Dihydroxytibolone]	–	5.12 ± 0.67	208 to 210
C#CC1(O)CC(O)C2C3C(C)C=C4CC(=O)CCC4C3C(O)CC21C (stereo not drawn) [Metabolite 6, 11α,15β-Dihydroxy-Δ^5-Tibolone]	–	7.1 ± 0.13	207 to 211
C#CC1(O)CCC2C3C(C)C(O)C4=CC(=O)CCC4C3CCC21C (stereo not drawn) [Metabolite 7, 6β-Hydroxy-Δ^4-Tibolone]	–	36.14 ± 0.21	–
C#CC1(O)CCC2C3C(C)C(OC)C4=CC(=O)CCC4C3CCC21C (stereo not drawn) [Metabolite 8, 6β-Methoxy-Δ^4-Tibolone]	–	25.15 ± 0.24	–
